Experimental data reported in patent US10183015B2, “Heterocyclic compounds and methods of use” (Medivation Technologies LLC, priority 2015, dated 2019).
Values joined by “and” are separate entries in the source; they are usually repeats but may differ in a detail not shown here. Equal values may be shown once.

How the values were obtained:
[1] = system: diet-induced NASH obese insulin resistant mice; experiment: DIN mouse model: blood glucose, plasma insulin, HOMA-IR; assay type: in vivo; conditions: for HOMA-IR index reduction / HOMA-IR day 0 / blood glucose day 0 / plasma insulin day 0: 20 mg/kg; for HOMA-IR day 0 / blood glucose day 0 / plasma insulin day 0: day 0 (baseline); for HOMA-IR day 42 / blood glucose day 42 / plasma insulin day 42: day 42, 20 mg/kg; for HOMA-IR day 70 / blood glucose day 70 / plasma insulin day 70: day 70, 20 mg/kg;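 as to blood glucose day 0: blood glucose in mg/dL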;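 as to blood glucose day 42: blood glucose in mg/dL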;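 as to blood glucose day 70: blood glucose in mg/dL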
Description: (§1) Male C57Bl/6J mice (8 weeks old) were housed in enriched ventilated cages (31×12.5×12.7 cm) throughout the experimental phase. Animals' cages litters were changed at least once a week. Animal were housed 5 per cage on inverted 12-hour light cycle (at 09:00 am lights off), 22±2° C. and 55±10% relative humidity. The acclimation period was 20 days. During the acclimation period, all mice were fed a standard diet (RM1 (E) 801492, SDS) and tap water ad libitum. After the acclimation period, mice were fed with the DIN diet (60% fat, cholesterol enriched) and fructose-enriched tap water ad libitum until the end of the experiment.
(§2) At 6 weeks of diet, mice were 4-hour fasted (09:00 am to 1:00 pm) and blood (150 μl/EDTA) was collected at 01:00 pm by retro-orbital bleeding under isoflurane anesthesia. Mice were then allocated in 2 homogenous groups (n=12/group) according to their plasma levels of ALT (average levels: 685U/L), AST (average levels: 627U/L) and HOMA-IR index (average value: 4.7), into 2 homogenous groups (see values at day 0 in Tables 15A and 15B ALT/AST and Tables 16A and 16B for HOMA-IR). Mice were then treated once daily by oral gavage with vehicle (Group 1) or Compound #37 at 20 mg/kg (Group 2) for 70 days.
To investigate whether Compound #37 improves pre-existing steatosis/NASH pathology, a study was conducted using a 16-week diet-induced NASH mouse model. In this model, mice develop steatosis that progresses with inflammation and fibrosis that mimic many of the observed pathologies in human nonalcoholic fatty liver disease (NAFLD) and NASH (Hebbard & George, 2010). For 6 weeks, mice were fed a high-fat, high-cholesterol diet and provided drinking water containing fructose to induce liver pathology (Charlton et al, 2011). After 6 weeks, the mice were divided into 2 groups with similar mean aspartate aminotransferase (AST) and alanine aminotransferase (ALT) values (n=12 mice), although it should be noted that AST and ALT concentrations within both groups were higher and with greater variability than anticipated (e.g., mean ALT 677 U/L [SD, 401 U/L] in the vehicle control group and 693 U/L [SD, 365 U/L] in the Compound #37 group). After the animals were divided into 2 groups, the diet was continued for 10 additional weeks during which time 1 group received vehicle and the other was treated with 20 mg/kg/day Compound #37.

[2] = system: Coll1a1; experiment: DIN mouse model: hepatic Coll1a1 (collagen 1α1) gene expression; assay type: in vivo; set-up: mean liver collagen α1(I) mRNA: unit not given here; conditions: for Coll1a1 Dct / Coll1a1 2^DDct / Coll1a1 DDct / Coll1a1 (Ct): liver, 20 mg/kg group
Description: Gene expression analysis. Hepatic expression levels of genes involved in lipid metabolism (FAS, SREBP1, ACC1, SCD1), cholesterol metabolism (HMG-CoAR, LDLR), SREBP proteolysis (SCAP, INSIG1), ER stress (PERK), oxidative stress (NRF2), inflammation (MCP-1), and fibrosis (collagen 1α1) were quantified by RTqPCR. Expression level was normalized to 18S gene expression and relative expression to vehicle group was calculated with the […] method.
as §1, §2
Hepatic expression levels of genes involved in lipid (FAS, SREBP1, ACC1, SCD1), cholesterol metabolism (HMG-CoAR, LDLR), in SREBP proteolysis (SCAP, INSIG1), in ER stress (PERK), oxidative stress (NRF2), and inflammation (MCP-1) were not changed. However, expression of collagen 1α1, involved in liver fibrosis, was reduced by 66% in mice treated with Compound #37 (p<0.05 vs. vehicle).

[3] = individual animals, vs vehicle mean, 20 mg/kg

For CC(C)Cc1cc(-c2nc(-c3ccc(NS(=O)(=O)C(F)(F)F)cc3Cl)cs2)ccn1 [Compound 37, N-(3-chloro-4-(2-(2-isobutylpyridin-4-yl)thiazol-4-yl)phenyl)-1,1,1-trifluoromethanesulfonamide], the HOMA-IR index reduction ([1]; day 42, not significant) was 50%, the HOMA-IR index reduction ([1]; day 70, not significant) was 40% and the “HOMA-IR day 0” value ([1]; group mean, n 12) was 4.8 [mM × μU/mL]/22.5. For the same molecule, the “blood glucose day 0” value ([1]; group mean, n 12) was 104 mg/dL, the “plasma insulin day 0” value ([1]; group mean, n 12) was 17 μU/mL and the “HOMA-IR day 0” value ([1]; individual animals) was 2.7 [mM × μU/mL]/22.5 and 4.1 [mM × μU/mL]/22.5 and 23.6 [mM × μU/mL]/22.5 and 2.1 [mM × μU/mL]/22.5 (2×) and 2.3 [mM × μU/mL]/22.5 (2×) and 1.9 [mM × μU/mL]/22.5 and 1.8 [mM × μU/mL]/22.5 and 3.8 [mM × μU/mL]/22.5 and 1.6 [mM × μU/mL]/22.5 and 8.8 [mM × μU/mL]/22.5. For the same molecule, the “blood glucose day 0” value ([1]; individual animals) was 97 mg/dL and 113 mg/dL (2×) and 123 mg/dL and 106 mg/dL and 79 mg/dL and 95 mg/dL and 114 mg/dL and 102 mg/dL and 89 mg/dL and 112 mg/dL and 103 mg/dL, the “plasma insulin day 0” value ([1]; individual animals) was 11.3 μU/mL and 14.7 μU/mL and 77.6 μU/mL and 8.1 μU/mL and 11.9 μU/mL and 6.9 μU/mL and 7.5 μU/mL (2×) and 13.6 μU/mL and 8.4 μU/mL and 31.9 μU/mL and 9 μU/mL and the “HOMA-IR day 42” value ([1]; group mean, n 12) was 3.7 [mM × μU/mL]/22.5. For the same molecule, the “blood glucose day 42” value ([1]; group mean, n 12) was 133 mg/dL, the “plasma insulin day 42” value ([1]; group mean, n 12) was 11.5 μU/mL and the “HOMA-IR day 42” value ([1]; individual animals) was 3.8 [mM × μU/mL]/22.5 (2×) and 3.3 [mM × μU/mL]/22.5 and 5.0 [mM × μU/mL]/22.5 and 7.7 [mM × μU/mL]/22.5 and 2.8 [mM × μU/mL]/22.5 (3×) and 1.9 [mM × μU/mL]/22.5 and 3.7 [mM × μU/mL]/22.5 and 3.5 [mM × μU/mL]/22.5 and 3.4 [mM × μU/mL]/22.5. For the same molecule, the “blood glucose day 42” value ([1]; individual animals) was 133 mg/dL and 139 mg/dL (2×) and 112 mg/dL and 126 mg/dL and 128 mg/dL and 132 mg/dL and 131 mg/dL and 138 mg/dL and 151 mg/dL and 140 mg/dL and 127 mg/dL, the “plasma insulin day 42” value ([1]; individual animals) was 11.6 μU/mL and 9.5 μU/mL and 18.0 μU/mL and 24.8 μU/mL and 8.9 μU/mL and 11.8 μU/mL and 5.8 μU/mL and 8.2 μU/mL (2×) and 10.0 μU/mL and 10.2 μU/mL and 10.7 μU/mL and the “HOMA-IR day 70” value ([1]; group mean, n 11) was 4.5 [mM × μU/mL]/22.5. For the same molecule, the “blood glucose day 70” value ([1]; group mean, n 11) was 130 mg/dL, the “plasma insulin day 70” value ([1]; group mean, n 11) was 13.7 μU/mL and the “HOMA-IR day 70” value ([1]; individual animals) was 7.5 [mM × μU/mL]/22.5 and 2.6 [mM × μU/mL]/22.5 and 6.0 [mM × μU/mL]/22.5 and 5.8 [mM × μU/mL]/22.5 and 3.9 [mM × μU/mL]/22.5 and 2.8 [mM × μU/mL]/22.5 and 6.5 [mM × μU/mL]/22.5 and 2.5 [mM × μU/mL]/22.5 and 3.8 [mM × μU/mL]/22.5 and 3.1 [mM × μU/mL]/22.5 and 4.5 [mM × μU/mL]/22.5. For the same molecule, the “blood glucose day 70” value ([1]; individual animals) was 138 mg/dL and 132 mg/dL and 135 mg/dL and 157 mg/dL and 136 mg/dL and 124 mg/dL and 127 mg/dL and 100 mg/dL and 114 mg/dL and 130 mg/dL and 141 mg/dL, the “plasma insulin day 70” value ([1]; individual animals) was 21.9 μU/mL and 8.0 μU/mL and 18.1 μU/mL and 15.1 μU/mL and 11.5 μU/mL and 9.3 μU/mL and 20.6 μU/mL and 10.3 μU/mL and 13.4 μU/mL and 9.8 μU/mL and 12.9 μU/mL and the “expression of collagen 1α1 reduction” value ([2]; 20 mg/kg, 70 days, p<0.05 vs. vehicle) was 66%. For the same molecule, the “mean liver collagen α1(I) mRNA” value ([2]; 20 mg/kg/day, 10 weeks, vehicle 1.45%, p<0.05) was 0.49, the “Coll1a1 Dct” value ([2]; individual animals, normalised to 18S, 20 mg/kg) was 15 and 14.23 and 17.82 and 16.38 and 15.37 and 15.65 and 15.13 and 16.1 and 16.14 and 17.48 and 12.82 and the “Coll1a1 2^DDct” value [2, 3] was 0.48 and 0.82 and 0.07 and 0.19 and 0.37 and 0.31 and 0.44 and 0.23 and 0.22 and 0.09 and 2.19. The “Coll1a1 DDct” value [2, 3] was 1.05 and 0.28 and 3.87 and 2.43 and 1.42 and 1.7 and 1.18 and 2.15 and 2.19 and 3.53 and −1.13, the “Coll1a1 (Ct)” value ([2]; individual animals, 20 mg/kg) was 27.55 and 26.78 and 30.66 and 28.81 and 27.72 and 28.24 and 26.86 and 28.61 and 27.64 and 29.03 and 25.17 and the “Coll1a1 2^DDct” value ([2]; mean, n 11) was 0.49. The “Coll1a1 (Ct)” value ([2]; mean, n 11) was 27.9, the “Coll1a1 DDct” value ([2]; mean, n 11) was 1.70 and the “Coll1a1 Dct” value ([2]; mean, n 11) was 15.6.
